These results are taken from patent publication US8471005B2 (Cephalon, Inc., priority 2008, dated 2013).

SMILES strings stand for the structures. Bounds are passed on as bounds.

Assay [1] addresses T1, JAK2 (Homo sapiens, UniProt O60674).
T1 construct: host or cells: baculovirus expression system
The assay can be described thus: Recombinant Human JAK2 Kinase Assay (TRF). The class given is biochemical. The following applies: JAK2 kinase inhibition, 0.2 μM ATP; read-out: JAK2 Potency. The method in brief: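 Baculovirus-expressed JAK2 (15 ng/ml) phosphorylated a biotinylated 15-mer peptide captured on Neutravidin-coated plates, in 20 mM HEPES pH 7.2 with 0.2 μM ATP, 1 mM MnCl2, 0.1% BSA and 2.5% DMSO. Reaction ran 20 min at room temperature; phosphopeptide was detected by time-resolved fluorescence with Eu-N1-labelled PY100 antibody.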

The target of assay [2] is T2, ALK (Homo sapiens, UniProt Q9UM73).
T2 construct: host or cells: baculovirus expression system
Nature of the assay: ALK Kinase Assay (ELISA/TRF, PLC-γ substrate). The class given is biochemical. Particulars: ALK kinase inhibition, 1 μM ATP; read-out: ALK Potency. The method, boiled down:
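Wells were coated with 10 μg/mL phospholipase C-γ substrate in TBS, and the reaction was started by adding 30 ng/ml ALK enzyme and run at 37° C for 15 minutes. Phosphorylated product was detected with Eu-N1-labeled PT66 antibody, and IC50 values came from sigmoidal variable-slope fits of percent inhibition against log concentration.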
Background: In an ELISA, binding on a coated surface is turned into a signal by an enzyme label.

T2 sequence (Q9UM73 19-1620): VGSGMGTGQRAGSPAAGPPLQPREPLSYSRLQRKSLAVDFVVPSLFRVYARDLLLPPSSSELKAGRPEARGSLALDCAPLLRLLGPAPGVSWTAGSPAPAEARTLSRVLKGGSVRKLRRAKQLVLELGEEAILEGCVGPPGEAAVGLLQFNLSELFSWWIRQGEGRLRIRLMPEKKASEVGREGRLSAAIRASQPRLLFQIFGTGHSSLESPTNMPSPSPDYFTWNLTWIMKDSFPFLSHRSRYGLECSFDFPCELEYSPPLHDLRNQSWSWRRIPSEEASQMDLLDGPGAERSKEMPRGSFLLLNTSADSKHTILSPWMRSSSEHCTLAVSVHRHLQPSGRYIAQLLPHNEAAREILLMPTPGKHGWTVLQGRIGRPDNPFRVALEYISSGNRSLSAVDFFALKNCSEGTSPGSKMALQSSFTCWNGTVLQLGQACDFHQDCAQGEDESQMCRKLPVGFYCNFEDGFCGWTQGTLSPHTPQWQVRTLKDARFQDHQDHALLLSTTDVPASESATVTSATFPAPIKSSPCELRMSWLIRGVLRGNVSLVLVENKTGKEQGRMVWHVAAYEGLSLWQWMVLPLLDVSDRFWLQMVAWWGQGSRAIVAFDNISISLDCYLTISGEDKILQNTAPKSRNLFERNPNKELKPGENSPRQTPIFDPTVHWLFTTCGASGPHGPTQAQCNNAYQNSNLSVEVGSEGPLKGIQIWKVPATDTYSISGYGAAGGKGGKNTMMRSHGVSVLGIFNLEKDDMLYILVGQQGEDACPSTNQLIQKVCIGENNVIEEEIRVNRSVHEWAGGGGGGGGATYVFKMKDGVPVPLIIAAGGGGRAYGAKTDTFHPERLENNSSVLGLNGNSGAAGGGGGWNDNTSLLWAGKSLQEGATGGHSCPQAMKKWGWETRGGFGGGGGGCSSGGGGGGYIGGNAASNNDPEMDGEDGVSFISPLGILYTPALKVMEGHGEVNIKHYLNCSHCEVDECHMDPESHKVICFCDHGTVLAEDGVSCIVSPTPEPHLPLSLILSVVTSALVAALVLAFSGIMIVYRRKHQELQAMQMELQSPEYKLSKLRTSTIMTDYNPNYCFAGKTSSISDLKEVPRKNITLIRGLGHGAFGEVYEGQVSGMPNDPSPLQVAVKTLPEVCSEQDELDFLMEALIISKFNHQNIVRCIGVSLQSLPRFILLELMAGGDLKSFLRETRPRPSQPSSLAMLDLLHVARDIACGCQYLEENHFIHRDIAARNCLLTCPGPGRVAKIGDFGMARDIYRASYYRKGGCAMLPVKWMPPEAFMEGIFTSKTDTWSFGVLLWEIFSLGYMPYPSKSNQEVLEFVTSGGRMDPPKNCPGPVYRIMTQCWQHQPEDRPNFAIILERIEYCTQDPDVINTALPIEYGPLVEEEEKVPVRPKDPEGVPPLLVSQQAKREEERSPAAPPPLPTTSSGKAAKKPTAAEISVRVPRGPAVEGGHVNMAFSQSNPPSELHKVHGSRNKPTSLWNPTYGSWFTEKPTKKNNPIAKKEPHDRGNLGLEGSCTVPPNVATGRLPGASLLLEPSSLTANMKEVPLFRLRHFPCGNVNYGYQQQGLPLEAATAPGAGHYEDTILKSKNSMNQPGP
T1 sequence (O60674 whole entry): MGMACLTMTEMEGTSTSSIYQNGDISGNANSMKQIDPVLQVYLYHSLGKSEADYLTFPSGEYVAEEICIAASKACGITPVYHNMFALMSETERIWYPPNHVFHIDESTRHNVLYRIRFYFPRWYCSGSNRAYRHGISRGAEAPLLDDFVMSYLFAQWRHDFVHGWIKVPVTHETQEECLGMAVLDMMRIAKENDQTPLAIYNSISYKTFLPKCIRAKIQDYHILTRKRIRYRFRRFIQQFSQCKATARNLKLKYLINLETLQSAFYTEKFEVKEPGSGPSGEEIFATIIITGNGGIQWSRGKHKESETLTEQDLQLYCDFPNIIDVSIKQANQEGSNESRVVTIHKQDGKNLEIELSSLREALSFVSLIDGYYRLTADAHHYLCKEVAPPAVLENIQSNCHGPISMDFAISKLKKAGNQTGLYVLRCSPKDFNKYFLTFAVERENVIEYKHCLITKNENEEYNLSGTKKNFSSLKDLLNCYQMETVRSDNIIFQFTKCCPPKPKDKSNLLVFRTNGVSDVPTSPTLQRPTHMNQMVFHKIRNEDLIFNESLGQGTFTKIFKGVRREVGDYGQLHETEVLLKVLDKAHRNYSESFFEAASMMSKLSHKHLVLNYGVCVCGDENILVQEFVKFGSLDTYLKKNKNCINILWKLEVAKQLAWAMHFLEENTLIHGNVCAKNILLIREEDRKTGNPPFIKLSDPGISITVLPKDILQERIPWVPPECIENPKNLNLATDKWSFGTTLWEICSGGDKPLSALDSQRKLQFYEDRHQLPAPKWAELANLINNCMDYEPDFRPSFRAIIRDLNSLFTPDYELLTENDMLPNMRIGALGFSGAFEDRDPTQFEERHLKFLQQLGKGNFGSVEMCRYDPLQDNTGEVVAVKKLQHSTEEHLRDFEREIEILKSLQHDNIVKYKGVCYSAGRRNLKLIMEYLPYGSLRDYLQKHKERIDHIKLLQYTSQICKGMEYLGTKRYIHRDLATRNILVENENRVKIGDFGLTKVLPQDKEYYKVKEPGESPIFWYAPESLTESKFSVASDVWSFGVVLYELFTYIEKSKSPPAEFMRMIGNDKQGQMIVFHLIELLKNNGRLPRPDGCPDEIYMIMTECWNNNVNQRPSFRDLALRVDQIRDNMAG

For the molecule `COc1cc(N2CCC(N3CCCOCC3)CC2)ccc1Nc1ncc2ccc(-c3ccccc3OC)n2n1` [Example 780, [2-Methoxy-4-(4-[1,4]oxazepan-4-yl-piperidin-1-yl)-phenyl]-[7-(2-methoxy-phenyl)-pyrrolo[2,1-f][1,2,4]triazin-2-yl]-amine], the IC50 in assay [1] and in assay [2] was below 0.1 µM in each case.

For the molecule `COc1cc(N2CCC(N3CCCN(C)CC3)CC2)ccc1Nc1ncc2ccc(-c3ccccc3OC)n2n1` [Example 781, {2-Methoxy-4-[4-(4-methyl-[1,4]diazepan-1-yl)-piperidin-1-yl]-phenyl}-[7-(2-methoxy-phenyl)-pyrrolo[2,1-f][1,2,4]triazin-2-yl]-amine], the IC50 in assay [1] and in assay [2] was below 0.1 µM throughout.

With `COc1cc(N2CCC(N3CCCOCC3)CC2)ccc1Nc1ncc2ccc(-c3ccccc3N(C)S(C)(=O)=O)n2n1` [Example 783, N-(2-{2-[2-Methoxy-4-(4-[1,4]oxazepan-4-yl-piperidin-1-yl)-henylamino]-pyrrolo[2,1-f][1,2,4]triazin-7-yl}-phenyl)-N-methyl-methanesulfonamide], the IC50 in assay [1] was 0.1 to 1 µM; in assay [2] it was below 0.1 µM.

Regarding `COc1cc(N2CCC(N3CCCN(C)CC3)CC2)ccc1Nc1ncc2ccc(-c3ccccc3N(C)S(C)(=O)=O)n2n1` [Example 784, N-[2-(2-{2-Methoxy-4-[4-(4-methyl-[1,4]diazepan-1-yl)-piperidin-1-yl]-phenylamino}-pyrrolo[2,1-f][1,2,4]triazin-7-yl)-phenyl]-N-methyl-methanesulfonamide], the figures for the IC50 in assay [1] and in assay [2] were 0.1 to 1 µM and below 0.1 µM, respectively.

For `COc1cc(C2CCN(C[C@H](Oc3ncc4ccc(-c5ccccc5N(C)S(C)(=O)=O)n4n3)C(F)(F)F)CC2)ccc1N` [Example 785, N-[2-(2-{(S)-1-[4-(4-Amino-3-methoxy-phenyl)-piperidin-1-ylmethyl]-2,2,2-trifluoro-ethoxy}-pyrrolo[2,1-f][1,2,4]triazin-7-yl)-phenyl]-N-methyl-methanesulfonamide], the IC50 in assay [1] and in assay [2] was above 10 µM in each case.

Take `COc1cc(C2CCN(C[C@H](Oc3ncc4ccc(-c5ccccc5OC)n4n3)C(F)(F)F)CC2)ccc1N` [Example 786, 2-Methoxy-4-(1-{(S)-3,3,3-trifluoro-2-[7-(2-methoxy-phenyl)-pyrrolo[2,1-f][1,2,4]triazin-2-yloxy]-propyl}-piperidin-4-yl)-phenylamine]: the IC50 in assay [1] and in assay [2] was above 10 µM each time.

In the case of `COc1cc(C2CCN(C[C@@H](C)O)CC2)ccc1Nc1ncc2ccc(-c3ccccc3OC)n2n1` [Example 787, (R)-1-(4-{3-Methoxy-4-[7-(2-methoxy-phenyl)-pyrrolo[2,1-f][1,2,4]triazin-2-ylamino]-phenyl}-piperidin-1-yl)-propan-2-ol], the IC50 in assay [1] was 0.1 to 1 µM; in assay [2], below 0.1 µM.

Turning to `COc1cc(C2CCN(C[C@@H](C)O)CC2)ccc1Nc1ncc2ccc(-c3ccccc3N(C)S(C)(=O)=O)n2n1` [Example 788, N-[2-(2-{4-[1-((R)-2-Hydroxy-propyl)-piperidin-4-yl]-2-methoxy-phenylamino}-pyrrolo[2,1-f][1,2,4]triazin-7-yl)-phenyl]-N-methyl-methanesulfonamide], the IC50 was 0.1 to 1 µM in assay [1] and below 0.1 µM in assay [2].

As to `COc1cc(N2CCCN(C3CCN(C)CC3)CC2)ccc1Nc1ncc2ccc(-c3ccccc3OC)n2n1` [Example 789, {2-Methoxy-4-[4-(1-methyl-piperidin-4-yl)-[1,4]diazepan-1-yl]-phenyl}-[7-(2-methoxy-phenyl)-pyrrolo[2,1-f][1,2,4]triazin-2-yl]-amine], the results for the IC50 in assay [1] and in assay [2] were 0.1 to 1 µM and below 0.1 µM, respectively.

In the case of `COc1cc(N2CCCN(C3CCN(C)CC3)CC2)ccc1Nc1ncc2ccc(-c3ccccc3N(C)S(C)(=O)=O)n2n1` [Example 790, N-[2-(2-{2-Methoxy-4-[4-(1-methyl-piperidin-4-yl)-[1,4]diazepan-1-yl]-phenylamino}-pyrrolo[2,1-f][1,2,4]triazin-7-yl)-phenyl]-N-methyl-methanesulfonamide], the results for the IC50 in assay [1] and in assay [2] were 0.1 to 1 µM and below 0.1 µM, respectively.

For the molecule `COc1cc(C2CCN(CCF)CC2)ccc1Nc1ncc2ccc(-c3ccccc3OC)n2n1` [Example 791, {4-[1-(2-Fluoro-ethyl)-piperidin-4-yl]-2-methoxy-phenyl}-[7-(2-methoxy-phenyl)-pyrrolo[2,1-f][1,2,4]triazin-2-yl]-amine], the values for the IC50 in assay [1] and in assay [2] were 0.1 to 1 µM and below 0.1 µM, respectively.

Consider `COc1cc(C2CCN(CCF)CC2)ccc1Nc1ncc2ccc(-c3ccccc3N(C)S(C)(=O)=O)n2n1` [Example 792, N-[2-(2-{4-[1-(2-Fluoro-ethyl)-piperidin-4-yl]-2-methoxy-phenylamino}-pyrrolo[2,1-f][1,2,4]triazin-7-yl)-phenyl]-N-methyl-methanesulfonamide], for which the IC50 in assay [1] is 0.1 to 1 µM; in assay [2], below 0.1 µM.

`COc1cc(C2CCN(CCO)CC2)ccc1Nc1ncc2ccc(-c3ccccc3N(C)S(C)(=O)=O)n2n1` [Example 793, N-[2-(2-{4-[1-(2-Hydroxy-ethyl)-piperidin-4-yl]-2-methoxy-henylamino}-pyrrolo[2,1-f][1,2,4]triazin-7-yl)-phenyl]-N-methyl-methanesulfonamide]: the IC50 in assay [1] was 0.1 to 1 µM; in assay [2], below 0.1 µM.

Regarding `COc1cc(C2CCN(C[C@@H](C)O)CC2)ccc1Nc1ncc2ccc(-c3cc(Cl)ccc3OC)n2n1` [Example 794, (R)-1-(4-{4-[7-(5-Chloro-2-methoxy-phenyl)-pyrrolo[2,1-f][1,2,4]triazin-2-ylamino]-3-methoxy-phenyl}-piperidin-1-yl)-propan-2-ol], the IC50 was 0.1 to 1 µM in assay [1] and below 0.1 µM in assay [2].

For the molecule `COc1cc(N2CCC(N(C)CCO)CC2)ccc1Nc1ncc2ccc(-c3ccccc3OC)n2n1` [Example 796, 2-[(1-{3-Methoxy-4-[7-(2-methoxy-phenyl)-pyrrolo[2,1-f][1,2,4]triazin-2-ylamino]-phenyl}-piperidin-4-yl)-methyl-amino]-ethanol], the IC50 in assay [1] and in assay [2] was below 0.1 µM in each case.

As to `COc1cc(N2CCC(NCCO)CC2)ccc1Nc1ncc2ccc(-c3ccccc3OC)n2n1` [Example 797, 2-(1-{3-Methoxy-4-[7-(2-methoxy-phenyl)-pyrrolo[2,1-f][1,2,4]triazin-2-ylamino]-phenyl}-piperidin-4-ylamino)-ethanol], the IC50 in assay [1] and in assay [2] was below 0.1 µM each time.

Take `COc1cc(C2CCN(C[C@H](O)C(F)(F)F)CC2)ccc1Nc1ncc2ccc(-c3ccccc3OC)n2n1` [Example 799, (S)-1,1,1-Trifluoro-3-(4-{3-methoxy-4-[7-(2-methoxy-phenyl)-pyrrolo[2,1-f][1,2,4]triazin-2-ylamino]-phenyl}-piperidin-1-yl)-propan-2-ol]: the IC50 in assay [1] is 0.1 to 1 µM; in assay [2], below 0.1 µM.

Consider `COc1cc(N2CCCN(C3CCN(CCO)CC3)CC2)ccc1Nc1ncc2ccc(-c3ccccc3OC)n2n1` [Example 800, 2-[4-(4-{3-Methoxy-4-[7-(2-methoxy-phenyl)-pyrrolo[2,1-f][1,2,4]triazin-2-ylamino]-phenyl}-[1,4]diazepan-1-yl)-piperidin-1-yl]-ethanol], for which the IC50 is 0.1 to 1 µM in assay [1] and below 0.1 µM in assay [2].

With `COc1cc(N2CCC(N3CCCN(CCO)CC3)CC2)ccc1Nc1ncc2ccc(-c3ccccc3OC)n2n1` [Example 801, 2-[4-(1-{3-Methoxy-4-[7-(2-methoxy-phenyl)-pyrrolo[2,1-f][1,2,4]triazin-2-ylamino]-phenyl}-piperidin-4-yl)-[1,4]diazepan-1-yl]-ethanol], the IC50 in assay [1] and in assay [2] was below 0.1 µM in each case.

For the molecule `COc1cc(N2CCC(N3CCCN(CCO)CC3)CC2)ccc1Nc1ncc2ccc(-c3ccccc3N(C)S(C)(=O)=O)n2n1` [Example 803, N-{2-[2-(4-{4-[4-(2-Hydroxy-ethyl)-[1,4]diazepan-1-yl]-piperidin-1-yl}-2-methoxy-phenylamino)-pyrrolo[2,1-f][1,2,4]triazin-7-yl]-phenyl}-N-methyl-methanesulfonamide], the IC50 was 0.1 to 1 µM in assay [1] and below 0.1 µM in assay [2].

For `COc1cc(C2CCN(C[C@H](O)C(F)(F)F)CC2)ccc1Nc1ncc2ccc(-c3ccccc3N(C)S(C)(=O)=O)n2n1` [Example 804, N-[2-(2-{2-Methoxy-4-[1-((S)-3,3,3-trifluoro-2-hydroxy-propyl)-piperidin-4-yl]-phenylamino}-pyrrolo[2,1-f][1,2,4]triazin-7-yl)-phenyl]-N-methyl-methanesulfonamide], the figures for the IC50 in assay [1] and in assay [2] were 0.1 to 1 µM and below 0.1 µM, respectively.

On to `COc1cc(C2CCCN(C)C2)ccc1Nc1ncc2ccc(-c3ccccc3OC)n2n1` (stereo not drawn) [Example 805, [2-Methoxy-4-(1-methyl-piperidin-3-yl)-phenyl]-[7-(2-methoxy-phenyl)-pyrrolo[2,1-f][1,2,4]triazin-2-yl]-amine], for which the figures for the IC50 in assay [1] and in assay [2] were 0.1 to 1 µM and below 0.1 µM, respectively.

For the molecule `COc1cc(C2CCCN(C)C2)ccc1Nc1ncc2ccc(-c3ccccc3N(C)S(C)(=O)=O)n2n1` (stereo not drawn) [Example 806, N-(2-{2-[2-Methoxy-4-(1-methyl-piperidin-3-yl)-phenylamino]-pyrrolo[2,1-f][1,2,4]triazin-7-yl}-phenyl)-N-methyl-methanesulfonamide], the values for the IC50 in assay [1] and in assay [2] were 0.1 to 1 µM and below 0.1 µM, respectively.

Consider `COc1cc(-c2cccnc2)ccc1Nc1ncc2ccc(-c3ccccc3OC)n2n1` [Example 807, [7-(2-Methoxy-phenyl)-pyrrolo[2,1-f][1,2,4]triazin-2-yl]-(2-methoxy-4-pyridin-3-yl-phenyl)-amine], for which the IC50 is above 10 µM in assay [1] and 1 to 10 µM in assay [2].
